Columns and labels:
Enterovirus A71 [1] = experiment: Antiviral activity against Enterovirus 71 infected in human RD cells assessed as cell viability after 3 days by MTS assay; type: functional, organism-based; conditions: Enterovirus A, 72 h
[2] = Cytotoxicity against human RD cells; type: cell-based
[3] = Selectivity index, ratio of CC50 for human RD cells to EC50 for Enterovirus 71; type: toxicity, cell-based; conditions: read-out: Ratio CC50/EC50
Enterovirus A71 [4] = experiment: Antiviral activity against Enterovirus 71 isolate TW/2429/04 infected in human RD cells assessed as cell viability after 3 days by MTS assay; type: functional, organism-based; conditions: Enterovirus A, isolate TW/2429/04, RD, 72 h
Enterovirus A71 [5] = experiment: Antiviral activity against Enterovirus 71 clinical isolate TW/70902/08 infected in human RD cells assessed as cell viability after 3 days by MTS assay; type: functional, organism-based; conditions: Enterovirus A, isolate TW/70902/08, RD, 72 h
Enterovirus A71 [6] = experiment: Antiviral activity against Enterovirus 71 clinical isolate TW/1956/05 infected in human RD cells assessed as cell viability after 3 days by MTS assay; type: functional, organism-based; conditions: Enterovirus A, isolate TW/1956/05, RD, 72 h
Enterovirus A71 [7] = experiment: Antiviral activity against Enterovirus 71 clinical isolate H08300 461#812 infected in human RD cells assessed as cell viability after 3 days by MTS assay; type: functional, organism-based; conditions: Enterovirus A, isolate H08300 461#812, RD, 72 h
Enterovirus A71 [8] = experiment: Antiviral activity against Enterovirus 71 clinical isolate 11316 infected in human RD cells assessed as cell viability after 3 days by MTS assay; type: functional, organism-based; conditions: Enterovirus A, isolate 11316, RD, 72 h
Enterovirus A71 [9] = experiment: Antiviral activity against Enterovirus 71 clinical isolate TW/96016/08 infected in human RD cells assessed as cell viability after 3 days by MTS assay; type: functional, organism-based; conditions: Enterovirus A, isolate TW/96016/08, RD, 72 h

SMILES	EC50 (Enterovirus A71 [1]) [µM]	CC50 [2] [µM]	selectivity ratio [3]	other results
OC[C@H]1O[C@@H](n2cnc3c(Nc4ccccc4)ncnc32)[C@H](O)[C@@H]1O [N6-PHENYLADENOSINE]	> 291	372	–	–
CC(C)=CCNc1ncnc2nc[nH]c12	> 325	325	–	–
OC[C@H]1O[C@@H](n2cnc3c(OCCCc4ccccc4)ncnc32)[C@H](O)[C@@H]1O	> 182	182	–	–
OC[C@H]1O[C@@H](n2cnc3c(NCCc4ccccc4)ncnc32)C[C@@H]1O	> 281	> 352	–	–
C[C@H]1O[C@@H](n2cnc3c(NCc4ccccc4)ncnc32)[C@H](O)[C@@H]1O	6.7	> 366	> 54	–
O=C(Nc1ncnc2c1ncn2[C@@H]1O[C@H](CO)[C@@H](O)[C@H]1O)c1ccccc1	12	> 337	> 28	–
OC[C@H]1O[C@@H](n2cnc3c(NCCc4ccccc4)ncnc32)[C@H](O)[C@@H]1O	1.8	221	123	EC50 (Enterovirus A71 [4]): 3.7 µM; EC50 (Enterovirus A71 [5]): 8.3 µM; EC50 (Enterovirus A71 [6]): 2.7 µM; EC50 (Enterovirus A71 [7]): 1.9 µM; EC50 (Enterovirus A71 [8]): 8.2 µM; EC50 (Enterovirus A71 [9]): 5.6 µM
OC[C@H]1O[C@@H](n2cnc3c(NCCOc4ccccc4)ncnc32)[C@H](O)[C@@H]1O	4.3	107	25	–
OC[C@H]1O[C@@H](n2cnc3c(NCc4ccco4)ncnc32)[C@H](O)[C@@H]1O [KINETIN RIBOSIDE]	1.4	7.8	5.6	–
OC[C@H]1O[C@@H](n2cnc3c(NCC#Cc4ccccc4)ncnc32)[C@H](O)[C@@H]1O	0.58	72	124	–
OC[C@H]1O[C@@H](n2cnc3c(NCCCCc4ccccc4)ncnc32)[C@H](O)[C@@H]1O	> 250	> 313	–	–
OC[C@H]1O[C@@H](n2cnc3c(NCCOc4ccccc4)ncnc32)C[C@@H]1O	> 135	> 337	–	–
OC[C@H]1O[C@@H](n2cnc3c(NCc4cn(COCc5ccccc5)nn4)ncnc32)[C@H](O)[C@@H]1O	> 116	116	–	–
C=CCC#CCNc1ncnc2c1ncn2[C@@H]1O[C@H](CO)[C@@H](O)[C@H]1O	4.9	> 434	> 88	–
OC[C@H]1O[C@@H](n2cnc3c(NCc4ccccc4)ncnc32)[C@H](O)[C@@H]1O [N6-BENZYLADENOSINE]	0.28	4	14	–
OC[C@H]1O[C@@H](n2cnc3c(NCCCc4ccccc4)ncnc32)C[C@@H]1O	> 271	> 271	–	–
Cn1cc(CNc2ncnc3c2ncn3[C@@H]2O[C@H](CO)[C@@H](O)[C@H]2O)nn1	> 136	136	–	–
OC[C@H]1O[C@@H](n2cnc3c(OCCc4ccccc4)ncnc32)[C@H](O)[C@@H]1O	> 8.5	8.5	–	–
OC[C@H]1O[C@@H](n2cnc3c(NCc4ccccc4)ncnc32)C[C@@H]1O	> 146	> 366	–	–
OCCn1cc(CNc2ncnc3c2ncn3[C@@H]2O[C@H](CO)[C@@H](O)[C@H]2O)nn1	> 317	317	–	–
CC(C)=CCNc1ncnc2c1ncn2[C@@H]1O[C@H](CO)[C@@H](O)[C@H]1O [RIBOPRINE]	1	5.8	5.8	–
OC[C@H]1O[C@@H](n2cnc3c(NC/C=C/c4ccccc4)ncnc32)[C@H](O)[C@@H]1O	0.66	426	645	EC50 (Enterovirus A71 [4]): 1.16 µM; EC50 (Enterovirus A71 [5]): 2.5 µM; EC50 (Enterovirus A71 [6]): 1 µM; EC50 (Enterovirus A71 [7]): 0.38 µM; EC50 (Enterovirus A71 [8]): 2.2 µM; EC50 (Enterovirus A71 [9]): 2 µM
OC[C@H]1O[C@@H](n2cnc3c(NCOCc4ccccc4)ncnc32)[C@H](O)[C@@H]1O	3	525	175	–
OC[C@H]1O[C@@H](n2cnc3c(OCc4ccccc4)ncnc32)[C@H](O)[C@@H]1O	5.1	191	37	–
OC[C@H]1O[C@@H](n2cnc3c(NCc4cn(Cc5ccccc5)nn4)ncnc32)[C@H](O)[C@@H]1O	> 228	> 285	–	–
O=C(Nc1ncnc2c1ncn2C(CO)OC(CO)CO)c1ccccc1 (stereo unspecified)	> 335	> 335	–	–
OC[C@H]1O[C@@H](n2cnc3c(NCCCc4ccccc4)ncnc32)[C@H](O)[C@@H]1O	1.8	189	105	–
c1ccc(CNc2ncnc3nc[nH]c23)cc1 [6-BENZYLAMINOPURINE]	0.42	547	1300	–
C[C@H]1O[C@@H](n2cnc3c(NCCc4ccccc4)ncnc32)[C@H](O)[C@@H]1O	> 281	463	–	–
OC[C@H]1O[C@@H](n2cnc3c(NCCCOc4ccccc4)ncnc32)[C@H](O)[C@@H]1O	> 311	> 311	–	–

Reference: ChEMBL document CHEMBL3792372, “Modification of the length and structure of the linker of N(6)-benzyladenosine modulates its selective antiviral activity against enterovirus 71” (Eur J Med Chem, 2016)
